The target of data set [1] is T1, Estrogen receptor (Homo sapiens, UniProt P03372).
T1 sequence (P03372 whole entry): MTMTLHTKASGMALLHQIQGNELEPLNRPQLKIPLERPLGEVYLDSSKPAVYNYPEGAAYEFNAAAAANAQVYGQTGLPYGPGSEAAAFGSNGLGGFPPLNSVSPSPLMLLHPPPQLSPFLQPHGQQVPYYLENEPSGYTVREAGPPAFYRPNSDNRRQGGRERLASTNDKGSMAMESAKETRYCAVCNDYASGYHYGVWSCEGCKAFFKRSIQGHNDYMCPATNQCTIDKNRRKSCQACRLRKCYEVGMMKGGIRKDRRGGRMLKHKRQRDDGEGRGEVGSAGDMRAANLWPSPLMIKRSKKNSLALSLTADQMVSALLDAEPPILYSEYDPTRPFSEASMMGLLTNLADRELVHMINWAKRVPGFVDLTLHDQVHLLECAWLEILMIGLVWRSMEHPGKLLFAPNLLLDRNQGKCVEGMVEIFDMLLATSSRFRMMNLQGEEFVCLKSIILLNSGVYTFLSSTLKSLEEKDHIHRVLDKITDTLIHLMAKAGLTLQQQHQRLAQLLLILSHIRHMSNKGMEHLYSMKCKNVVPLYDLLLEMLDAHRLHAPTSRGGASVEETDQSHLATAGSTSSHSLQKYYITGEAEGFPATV
The data set can be described thus: Estrogenic activity at ERalpha in human Ishikawa cells assessed as induction of alkaline phosphatase activity at 0.01 to 1 uM using […] as substrate treated for 96 hrs followed by substrate addition by spectrophotometric method. In kind it is cell-based.

Data set [2] has as its target T2, Estrogen receptor beta (Homo sapiens, UniProt Q92731).
Description: (§1) Estrogenic activity at ERbeta (unknown origin) expressed in human MDA-MB-231/beta41 cells after 18 hrs by renilla luciferase reporter gene assay
Data set [3] has as its target T1, Estrogen receptor.
Description: Estrogenic activity at ERalpha in human Ishikawa cells assessed as induction of alkaline phosphatase activity using p-nitrophenol as substrate treated for 96 hrs followed by substrate addition by spectrophotometric method
The target of data set [4] is T2, Estrogen receptor beta. The source holds these as a separate data set.
Description: as §1
Data set [5] deals with T3, Estrogen receptor alpha (ERalpha) (Homo sapiens, UniProt P03372).
T3 sequence (P03372 whole entry): T1 sequence (P03372 whole entry)
The data set can be described thus: in vitro. To be noted: Ishikawa cells, probe p-nitrophenol (so in the source) as alkaline phosphatase substrate.
Description: Estrogenic activity at ERalpha in human Ishikawa cells assessed as induction of alkaline phosphatase activity using p-nitrophenol as substrate treated for 96 hrs followed by substrate addition by spectrophotometric method relative to estradiol

The term EC50 denotes the concentration that produces a half-maximal response. As usually defined, the Emax is the maximal effect, on the per cent scale that the assay sets.

T2 sequence (Q92731 whole entry): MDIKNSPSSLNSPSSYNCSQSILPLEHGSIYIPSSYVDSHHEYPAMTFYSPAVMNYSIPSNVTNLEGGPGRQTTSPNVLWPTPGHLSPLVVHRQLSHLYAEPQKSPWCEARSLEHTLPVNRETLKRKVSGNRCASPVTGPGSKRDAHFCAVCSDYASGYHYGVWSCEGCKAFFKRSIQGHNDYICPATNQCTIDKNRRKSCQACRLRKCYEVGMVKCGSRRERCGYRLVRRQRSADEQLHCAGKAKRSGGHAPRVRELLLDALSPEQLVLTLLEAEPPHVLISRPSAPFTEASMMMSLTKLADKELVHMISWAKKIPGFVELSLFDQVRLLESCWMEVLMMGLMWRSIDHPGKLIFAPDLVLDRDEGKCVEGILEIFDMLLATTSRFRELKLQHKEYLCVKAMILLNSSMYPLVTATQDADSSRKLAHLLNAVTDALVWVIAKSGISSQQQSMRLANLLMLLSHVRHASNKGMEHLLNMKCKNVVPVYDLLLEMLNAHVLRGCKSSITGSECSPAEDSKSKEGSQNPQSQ

Consider `COc1cc(O)c(C(=O)/C=C/c2ccc(O)cc2)cc1CC=C(C)C`, for which the Activity result on Estrogen receptor [1] is “Not Active”. On Estrogen receptor beta [2], `CC(C)=CCc1c(O)cc(O)c2c1O[C@H](c1ccc(O)cc1)CC2=O` yielded an EC50 of 5 nM. On to `CCCc1c(-c2ccc(O)cc2)nn(-c2ccc(O)cc2)c1-c1ccc(O)cc1` [PROPYLPYRAZOLETRIOL], for which the EC50 on Estrogen receptor [3] was 1 nM; on Estrogen receptor beta [4], “Not Active”. Besides, the Emax at 96 h in data set [5] is 119%.

These data come from ChEMBL document CHEMBL4251720, “Estrogen Receptor (ER) Subtype Selectivity Identifies 8-Prenylapigenin as an ERβ Agonist from Glycyrrhiza inflata and Highlights the Importance of Chemical and Biological Authentication” (J Nat Prod, 2018).
